In ChEMBL document CHEMBL4680160, “A perspective review on fatty acid amide hydrolase (FAAH) inhibitors as potential therapeutic agents” (Eur J Med Chem, 2020):

How the values were obtained:
[1] = molecular target: T1, Fatty-acid amide hydrolase 1 (Rattus norvegicus, UniProt P97612); experiment: Inhibition of rat FAAH expressed in HEK293 cells using AEA as substrate by HPLC-MS/MS analysis; assay type: cell-based
T1 sequence (P97612 whole entry): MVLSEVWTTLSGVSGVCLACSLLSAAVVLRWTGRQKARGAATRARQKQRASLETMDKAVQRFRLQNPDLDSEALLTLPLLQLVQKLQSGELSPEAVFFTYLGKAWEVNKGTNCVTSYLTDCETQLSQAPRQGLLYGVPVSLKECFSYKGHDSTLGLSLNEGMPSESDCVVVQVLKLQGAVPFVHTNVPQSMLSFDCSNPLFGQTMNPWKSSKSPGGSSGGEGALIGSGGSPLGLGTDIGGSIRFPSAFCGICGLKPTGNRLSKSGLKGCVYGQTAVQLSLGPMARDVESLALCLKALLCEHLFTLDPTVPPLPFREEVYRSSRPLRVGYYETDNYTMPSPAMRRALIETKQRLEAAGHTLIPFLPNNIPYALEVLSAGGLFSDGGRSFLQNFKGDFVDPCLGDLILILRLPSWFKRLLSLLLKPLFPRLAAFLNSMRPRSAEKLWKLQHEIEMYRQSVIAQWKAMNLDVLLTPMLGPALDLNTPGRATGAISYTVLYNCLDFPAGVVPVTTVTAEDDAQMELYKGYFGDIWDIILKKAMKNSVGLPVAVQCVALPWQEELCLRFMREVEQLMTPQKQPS

[2] = molecular target: T2, Fatty-acid amide hydrolase 1 (Homo sapiens, UniProt O00519); experiment: Inhibition of FAAH (unknown origin)
T2 sequence (O00519 whole entry): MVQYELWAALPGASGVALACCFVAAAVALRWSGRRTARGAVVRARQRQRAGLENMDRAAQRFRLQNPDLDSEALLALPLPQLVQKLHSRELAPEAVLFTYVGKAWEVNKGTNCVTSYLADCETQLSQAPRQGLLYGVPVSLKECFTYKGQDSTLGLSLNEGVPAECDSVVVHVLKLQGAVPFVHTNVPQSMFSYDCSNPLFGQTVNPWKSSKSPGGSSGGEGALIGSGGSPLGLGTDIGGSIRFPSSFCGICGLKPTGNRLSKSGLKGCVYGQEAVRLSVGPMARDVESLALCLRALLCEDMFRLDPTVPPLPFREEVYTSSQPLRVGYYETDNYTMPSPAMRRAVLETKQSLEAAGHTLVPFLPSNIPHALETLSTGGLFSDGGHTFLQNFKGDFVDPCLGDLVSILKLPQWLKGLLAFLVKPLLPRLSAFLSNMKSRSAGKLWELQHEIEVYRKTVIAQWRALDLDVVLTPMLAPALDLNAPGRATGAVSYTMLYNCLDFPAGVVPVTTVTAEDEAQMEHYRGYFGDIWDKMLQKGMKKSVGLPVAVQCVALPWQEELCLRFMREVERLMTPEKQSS

[3] = molecular target: T1, Fatty-acid amide hydrolase 1; experiment: Inhibition of FAAH in Sprague-Dawley rat brain homogenate using arachidonoyl-ethanolamide and anandamide [ethanolamine-1-3H] as substrate pre-incubated for 10 mins followed by substrate addition and measured after 30 mins by liquid scintillation counting method; assay type: tissue-based
[4] = molecular target: T2, Fatty-acid amide hydrolase 1; experiment: Inhibition of human FAAH expressed in HEK293 cells using AMC arachidonyl amide as substrate pre-incubated for 50 mins followed by substrate addition and measured after 30 mins by fluorescence method; assay type: cell-based
[5] = molecular target: T2, Fatty-acid amide hydrolase 1; experiment: Inhibition of human recombinant FAAH using (AMC) arachidonoyl amide as substrate preincubated for 5 mins followed by substrate addition and measured after 30 mins by fluorescence method
[6] = Kinetic solubility of compound in PBS at pH 7.4; assay type: physicochemical; conditions: read-out: Kinetic_solubility
[7] = molecular target: Cannabinoid receptor 2 (Homo sapiens, UniProt P34972); experiment: Displacement of [3H]-CP55940 from recombinant human CB2 receptor expressed in CHO cells incubated for 90 mins by scintillation counting method; assay type: cell-based
Sequence of Cannabinoid receptor 2 (P34972 whole entry): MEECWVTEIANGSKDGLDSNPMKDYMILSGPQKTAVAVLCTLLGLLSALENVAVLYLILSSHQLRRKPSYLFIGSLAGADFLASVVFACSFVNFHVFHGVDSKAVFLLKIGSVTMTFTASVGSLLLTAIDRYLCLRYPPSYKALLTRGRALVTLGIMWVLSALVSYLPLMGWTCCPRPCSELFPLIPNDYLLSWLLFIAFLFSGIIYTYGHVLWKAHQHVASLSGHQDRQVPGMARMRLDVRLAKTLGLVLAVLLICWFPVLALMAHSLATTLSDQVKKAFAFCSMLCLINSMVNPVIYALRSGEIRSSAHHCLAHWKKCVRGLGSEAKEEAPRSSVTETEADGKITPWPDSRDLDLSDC

[8] = molecular target: T3, Fatty-acid amide hydrolase 1 (Rattus norvegicus) (UniProt P97612); experiment: Inhibition of FAAH in rat brain homogenate using AEA as substrate at 100 nM preincubated for 15 mins followed by substrate addition and measured after 10 mins by scintillation counting method relative to control; assay type: tissue-based; conditions: time 25.0 min
T3 sequence (whole entry): T1 sequence (P97612 whole entry)

[9] = molecular target: T4, Fatty-acid amide hydrolase 1 (Mus musculus, UniProt O08914); experiment: Inhibition of FAAH in OF1 albino mouse brain homogenate assessed as reduction in [3H]ethanolamine production using [3H]anandamide as substrate; assay type: tissue-based
T4 sequence (O08914 whole entry): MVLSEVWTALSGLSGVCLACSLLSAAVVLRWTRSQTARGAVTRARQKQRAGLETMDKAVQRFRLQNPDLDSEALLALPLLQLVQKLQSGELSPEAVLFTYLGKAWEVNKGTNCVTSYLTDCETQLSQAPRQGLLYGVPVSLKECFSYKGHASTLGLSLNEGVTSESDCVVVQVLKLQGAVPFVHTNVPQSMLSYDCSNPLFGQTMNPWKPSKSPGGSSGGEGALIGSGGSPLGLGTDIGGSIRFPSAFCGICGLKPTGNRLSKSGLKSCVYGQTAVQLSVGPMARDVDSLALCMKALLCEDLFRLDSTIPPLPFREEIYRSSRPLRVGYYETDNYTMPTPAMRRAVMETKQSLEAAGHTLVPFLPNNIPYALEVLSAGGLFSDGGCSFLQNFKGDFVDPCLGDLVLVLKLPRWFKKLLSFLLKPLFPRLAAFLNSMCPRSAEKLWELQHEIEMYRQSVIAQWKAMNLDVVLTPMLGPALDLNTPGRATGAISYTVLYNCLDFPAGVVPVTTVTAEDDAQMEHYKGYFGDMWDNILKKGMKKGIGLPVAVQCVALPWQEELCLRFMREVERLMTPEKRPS

[10] = molecular target: T3, Fatty-acid amide hydrolase 1 (Rattus norvegicus); experiment: Inhibition of rat FAAH expressed in HEK293 cells using AEA as substrate at 100 uM by liquid chromatography/mass spectroscopy relative to control; assay type: cell-based

## O=C(NCCCc1ccccc1)n1cc(C(F)(F)F)c(=O)[nH]c1=O
[1]
  IC50: 21 nM

## CCCCCOc1ccccc1-c1cc(C(=O)NC23CC4CC(CC(C4)C2)C3)no1
[2]
  IC50: > 10000 nM

## O=C(NCCCCN1CCN(c2cccc(Cl)c2Cl)CC1)Oc1ccc2ccccc2c1
[3]
  IC50: 13 nM
[4]
  IC50: 2.7 nM

## O=C1/C(=N/c2nc3ccccc3[nH]2)c2ccccc2N1C(=O)c1ccc(Cl)cc1Cl
[5]
  IC50: 1490 nM

## O=C(NCCc1ccc(-c2ccccc2)cc1)n1ccc(=O)[nH]c1=O
[1]
  IC50: 53 nM

## O=C(NCCCCN1CCN(c2cccc(Cl)c2Cl)CC1)Oc1cccc2ccccc12
[3]
  IC50: 22 nM
[4]
  IC50: 6.1 nM
[6]
  solubility kinetic: < 1 µM

## CCCCCOc1ccc(-c2cc(C(=O)NC34CC5CC(CC(C5)C3)C4)no2)cc1
[7]
  IC50: > 1000 nM

## CN(C(=O)n1cnc(-c2ccc[n+]([O-])c2)c1)C1CCCCC1
[8]
  inhibition: 85%

## COc1ccc2c(cccc2[C@H]2CO[C@H](CCCNC(=O)OCC(N)=O)OC2)c1
[9]
  IC50: 62.5 nM

## CCCCCCCC/C=C\CCCCCCCC(=O)NO
[10]
  inhibition: 98.3%

## NC(=O)c1ccc(-c2ccc(OC(=O)NCCCCN3CCN(c4cccc(Cl)c4Cl)CC3)cc2)cc1
[3]
  IC50: 0.7 nM
[4]
  IC50: 0.6 nM
